Data set [1] addresses HBsAg (Hepatitis B virus genotype D subtype ayw, UniProt P03138). Briefly: Activity measured diagnostically with an immunoassay. Format: binding. From the text:
(§1) In certain embodiments, the anti-HBV antibody is HBC34 or an engineered variant thereof. HBC34 are human antibodies against HBsAg with high neutralizing activity. […] The activity of HBC34, as measured diagnostically with an immunoassay, is 5000 IU/mg. As a comparison, the activity of HBIG is ˜1 IU/mg.

In data set [2] the test system is antigenic loop of HBsAg. As to the kind of experiment: Binding of HBC34 to HBsAg antigenic loop, genotypes and mutants. The arrangement: species or system HBV.
Excerpt: as §1

Data set [3] relates to HBV. Briefly: Preclinical pharmacology of SIRNA01 against HBV. From the text: In some embodiments, the siRNA that targets HBV mRNA is SIRNA01. SIRNA01 is a synthetic, chemically modified siRNA targeting HBV RNA with a covalently attached triantennary N-acetyl-galactosamine (GalNAc) ligand that allows for specific uptake by hepatocytes. […] An SIRNA can have multiple antiviral effects, including degradation of the pgRNA, thus inhibiting viral replication, and degradation of all viral mRNA transcripts, thereby preventing expression of viral proteins. This may result in the return of a functional immune response directed against HBV, either alone or in combination with other therapies. The ability of SIRNA01 to reduce HBsAg-containing noninfectious subviral particles also distinguishes it from currently available treatments.
SIRNA01 targets and inhibits expression of an mRNA encoded by an HBV genome according to NCBI Reference Sequence NC_003977.2 (GenBank Accession No. GI:21326584) (SEQ ID NO:1). More specifically, SIRNA01 targets an mRNA encoded by a portion of the HBV genome comprising the sequence […] (SEQ ID NO:2), which corresponds to nucleotides 1579-1597 of SEQ ID NO:1. Because transcription of the HBV genome results in polycistronic, overlapping RNAs, SIRNA01 results in significant inhibition of expression of most or all HBV transcripts.

Data set [4] concerns chronic HBV infection. Particulars: patients with chronic HBV infection; cited from earlier work.
For data set [5], the system named is chronic HBV infection. Particulars: after 48 weeks of therapy; cited from earlier work.
The test system of data set [6] is chronic HBV infection. The following applies: cited from earlier work.
Data set [7] relates to chronic HBV infection. The following applies: PEG-IFNα add-on therapy; cited from earlier work.

On to “HBC34: human antibody against HBsAg with high neutralizing activity; HC SEQ ID NO:56, LC SEQ ID NO:58”, for which, in data set [1], the “activity, as measured diagnostically with an immunoassay” value was determined as 5000 IU/mg. In addition, in data set [2], the “HBV genotypes and mutants recognized” value is “all 10 HBV genotypes and 18 mutants”; the “affinity of binding to the antigenic loop of HBsAg” value is reported as “pM range”.
Consider “SIRNA01: synthetic, chemically modified GalNAc-conjugated siRNA targeting HBV RNA; sense strand SEQ ID NO:5, antisense strand SEQ ID NO:6 (sense GUGUGCACUUCGCUUCACA; antisense UGUGAAGCGAAGUGCACACUU; GalNAc-conjugated, chemically modified, pattern not given here)”, for which the “pharmacological activity against HBV genotypes” value in data set [3] is “pharmacologically active against HBV genotypes A through J”. Besides, the “effect in preclinical models” value in data set [3] (preclinical models) is “inhibit viral replication, translation, and secretion of HBsAg”. Besides, the “reduction in HBsAg when administered individually” value in data set [4] is “substantial reductions in HBsAg”.
Turning to peginterferon-alfa-2a [PEG-IFNα], in data set [5], the “percentage of patients with long-term viral control” value is given as below 10%. Also, the “HBsAg loss, patients overall” value in data set [6] (PEG-IFNα 180 g administered weekly for 48-52 weeks, approximately) is given as at most 10%. Moreover, the “rate of HBsAg loss, subset with low baseline HBsAg” value in data set [6] (baseline HBsAg less than approximately 1,000-1,500 IU/mL, with or without an NRTI) is on record as 20-40%. Besides, the “mean HBsAg reduction at Week 24” value in data set [7] is given as 0.57 log10 IU/mL.

The record behind these values is US20250320497A1, “COMPOSITIONS AND METHODS FOR TREATING HEPATITIS B VIRUS (HBV) INFECTION AND HBV-ASSOCIATED DISEASES” (priority 2022, published 2025).
